We go through 7 molecules from patent US12576129B2, “Anthelmintic compositions and methods” (priority 2016, dated 2026).

Assay [1] has as its system BaCC. The assay can be described thus: Minimum inhibitory concentration of terpenes against BaCC (broth microdilution). The conditions noted are these: Bacillus thuringiensis; 24 h at 30° C. in LB; no absorbance increase; read-out: MIC μg/mL (100). The class given is cell-based. The method, then: Three terpenes were tested against BaCC including: carvacrol, geraniol and farnesol, by using the broth microdilution method as described in Agaisse and Lereclus, J. Bacteriol. 176, 4734-4741, 1994 and Agaisse and Lereclus, Mol. Microbiol. 13, 97-107, 1994 with some modifications. Briefly, BaCC from a single colony was grown in 5 mL of LB medium supplemented with 10 μg/mL erythromycin+200 μg/mL kanamycin overnight (O.D. (600) of 4.8, 2.3×10^7 CFU/mL). Terpene solutions were prepared at 1 mg/mL in LB. One hundred μL of two-fold serial dilutions of each terpene in LB were prepared in 96-well microtiter plates over the range of 1000 to 3.9 μg/mL in triplicate. LB without terpenes was used as a negative control. BaCC culture was diluted 100 times, and 100 μL of BaCC culture was added to the wells. Absorbance at 600 nm was recorded before and after the incubation to monitor bacterial growth. The MICs were determined after incubation for 24 h at 30° C. without shaking.

Assay [2] has as its system BaCC. The assay can be described thus: Time to kill: CFU/mL of BaCC after terpene treatment. The class given is cell-based, Bacillus thuringiensis. On the procedure:
In order to determine which terpene kills BaCC in the shortest amount of time, we incubated 5 mL of BaCC culture with three terpenes at 1 mg/mL at 4° C. for 1, 2, 3 and 5 hours. No terpene control and no bacteria controls were carried out simultaneously. After incubation with terpenes, samples were centrifuged and the pellets were washed with 5 mL of 1M NaCl once and 5 mL of sterile distilled water twice in order to remove the terpenes. The pellets were re-suspended in the original volume and plated on LB agar with kanamycin and erythromycin. Plates were incubated overnight at 30° C.; the next day, the number of colonies on the plates were enumerated and colony forming units (CFU)/mL calculated.
To assess terpene killing at shorter time points, BaCC culture was grown in 3× LB for 48 h as described above and 60 ml of cultures were aliquoted in sterile tubes. Carvacrol and geraniol were added to the final concentration of 1 mg/mL, and the tubes were placed on a rotator at 4° C. for 15 minutes. The negative control was prepared using sterile water instead of terpenes. At the end of the incubation period, the tubes were centrifuged at 2000× g for 10 minutes and pellets washed with 60 ml of 1 M NaCl once and washed with 60 mL of sterile distilled water twice. Pellets were re-suspended in 1.2 mL of sterile distilled water to concentrate the culture 50 times. Concentrated terpene treated and control samples were plated on LB agar plates containing kanamycin and erythromycin and incubated overnight at 30° C. The number of colonies were counted the next day and CFU/mL calculated for each time point.

Assay [3] deals with Ancylostoma ceylanicum hookworms. The conditions noted are these: cited from earlier work; for % Parasite reduction: A. ceylanicum infections in hamsters.
The subject of assay [4] is Heligmosomoides polygyrus. The assay can be described thus: Heligmosomoides polygyrus infection in STAT6-/- mice. The conditions noted are these: immunosuppressed mice lacking STAT6. The class given is in vivo. The source says: Such a result is not surprising given that Cry5B directly intoxicates STH parasites in vitro. This is not true of all anthelmintics, e.g., DEC and in some cases ivermectin, for which it appears that involvement of the immune system is important for their mechanism of action. To confirm that the immune system is not essential for Cry5B action, STAT6−/− mice were infected with Heligmosomoides polygyrus STH parasites. STAT6 is required for the TH2 response required for normal expulsion of STH parasites.

For a further assay, the system named is Ancylostoma caninum. Put plainly: Ancylostoma caninum hookworm infection in dogs (fecal egg count, capsule endoscopy). It is filed as in vivo. On the procedure: Two beagles were inoculated per os with 1000 Ancylostoma caninum larvae. Forty one days post-infection, stool was collected for determination of fecal egg loads and the dog intestines were imaged using capsule endoscopy to count hookworms (Lee, A., et al. Int. J. Parasitol. 41, 1377-1383, 2011). One dose of Cry5B SCL (˜40 mg/kg) was given by gavage on each of day 42 and 44 post-infection. On day 49 post-infection a final fecal egg count was taken and capsule endoscopy repeated for final hookworm counts.

For assay [5], the system named is Ancylostoma ceylanicum hookworms. Put plainly: A. ceylanicum hookworm curative experiment in Syrian hamsters (worm burdens, fecal egg counts). The class given is in vivo. On the procedure:
Studies of Ancylostoma ceylanicum hookworms in Syrian hamsters were carried out as previously described (Hu, Y., et al. PLoS One, 8, e70702, 2013; Hu, Y., et al. Appl Environ Microbiol, 79, 5527-5532, 2013). Briefly, 4-6 week old male hamsters were infected with 150 infectious third staged larvae per os. On day 17 post-infection, an overnight collection of stool is taken and fecal egg counts (FECs) taken the next day. The hamsters are assigned to groups based on FEC so that there is roughly the same level of infection (same average egg per gram of feces or EPG) in all groups. On day 18 post-infection, the hamsters are weighed for dosing purposes and then gavaged with treatments as described in each experiment. On day 21 post-infection, another overnight collection of stool is taken for FECs. On day 22 post-infection, the animals were euthanized. Total hookworms in the small intestine were counted and EPGs calculated.
For all experiments involving cimetidine, hamsters or mice were pre-gavaged with 200 μL of an 8.75% cimetidine solution 15 minutes prior to therapeutic treatment (Stepek, G., et al. Parasitology, 134, 103-112, 2007).
For in vivo curative experiments, male hamsters were infected per os with 150 A. ceylanicum infectious larvae. On day 17 postinoculation (p.i.), a fecal sample was collected from each hamster, and the number of eggs was counted using the modified McMaster technique (13). On the basis of these fecal egg counts, the hamsters were segregated to ensure that the groups (control and treatment) had roughly equivalent infection levels. […] The hamsters were sacrificed on day 22 p.i., and intestinal parasite burdens were determined as described previously (14). The one-tailed Mann-Whitney test was performed to compare the two groups for significance in the experiment using a dose of 10 mg/kg of body weight (data were calculated and plotted using Prism 5 [GraphPad Software Inc., La Jolla, CA]). […]

[6] abbreviates: Average of dogs (n = 2), 40 mg/kg.
Where [7] appears, read: dogs (n = 2), post- vs pre-treatment, 40 mg/kg.

In brackets after ≈: the same amount, converted by molar mass. Read-outs that look alike come from different tables or passages of the source.

As to `CC(C)=CCCC(C)=CCCC(C)=CCO` [Farnesol, farnesol], the MIC with BaCC [1] was found to be 500 µg/mL (≈ 2250 µM). The “CFU/ml (1 mg/mL terpene treatment for time indicated)” value is given as 1.00 × 10^7 CFU/ml in the assay on BaCC [2] (1 h at 4° C.), 1.30 × 10^5 CFU/ml with BaCC [2] (3 h at 4° C.), 0 CFU/ml with BaCC [2] (5 h at 4° C.) and 2.31 × 10^7 CFU/ml with BaCC [2] (time 0).

Regarding `CN1CCCN=C1/C=C/c1cccs1` [Pyrantel, pyrantel], the “% Parasite reduction” value in assay [3] (10 mg/kg) is reported as 87%. For the same molecule, the “reduction of A. ceylanicum burdens” value in assay [3] (hamsters, 10-mg/kg dose) is on record as 87%.

For the molecule `C/C(=N/c1ccc(/N=C/c2ccc(/C=N/c3ccc(/N=C(/C)N(C)C)cc3)cc2)cc1)N(C)C` [Tribendimidine, tribendimidine], in assay [3] (10 mg/kg), the “% Parasite reduction” value is reported as 75%. Further, the “reduction of A. ceylanicum burdens” value in assay [3] (hamsters, 10-mg/kg dose) is recorded as 75%.

For the molecule `CCCSc1ccc2nc(NC(=O)OC)[nH]c2c1` [Albendazole, albendazole], the “% Parasite reduction” value in assay [3] (1.25 mg/kg) was 88%. Besides, the “reduction of A. ceylanicum burdens” value in assay [3] (hamsters, 1.25-mg/kg (4.7 μmol/kg) dose) is on record as 88%. In addition, the “dose required to clear the same infection” value in assay [3] (in vivo) was 5 mg/kg.

`c1ccc([C@H]2CN3CCSC3=N2)cc1` [Levamisole, levamisole]: in assay [3] (10 mg/kg), the “% Parasite reduction” value was 60%. Also, in assay [3] (hamsters, 10-mg/kg dose), the “reduction of A. ceylanicum burdens” value is 60%.

Regarding `CC(C)=CCC/C(C)=C/CO` [Geraniol, geraniol], the MIC in the assay with BaCC [1] was found to be 500 µg/mL (≈ 3240 µM). Further, the “CFU/ml (1 mg/mL terpene treatment for time indicated)” value was 100 CFU/ml in the assay on BaCC [2] (15 min at 4° C., culture concentrated 50 times (50X conc.) before plating); 0 CFU/ml in the assay with BaCC [2] (1 h at 4° C.); 0 CFU/ml in the assay with BaCC [2] (3 h at 4° C.); 0 CFU/ml with BaCC [2] (5 h at 4° C.); 2.31 × 10^7 CFU/ml with BaCC [2] (time 0).

B1: Cry5B: Bacillus thuringiensis crystal (Cry) protein Cry5B, SEQ ID NO:1; purified full-length protein (protein, listed as Bacillus thuringiensis)
chain: MATINELYPVPYNVLAHPIKEVDDPYSWSNLLKGIQEGWEEWGKTGQKKLFEDHLTIAWNLYKTGKLDYFALTKASISLIGFIPGAEAAVPFINMFVDFVWPKLFGANTEGKDQQLFNAIMDAVNKMVDNKFLSYNLSTLNKTIEGLQGNLGLFQNAIQVAICQGSTPERVNFDQNCTPCNPNQPCKDDLDRVASRFDTANSQFTQHLPEFKNPWSDENSTQEFKRTSVELTLPMYTTVATLHLLLYEGYIEFMTKWNFHNEQYLNNLKVELQQLIHSYSETVRTSFLQFLPTLNNRSKSSVNAYNRYVRNMTVNCLDIAATWPTFDTHNYHQGGKLDLTRIILSDTAGPIEEYTTGDKTSGPEHSNITPNNILDTPSPTYQHSFVSVDSIVYSRKELQQLDIATYSTNNSNNCHPYGLRLSYTDGSRYDYGDNQPDFTTSNNNYCHNSYTAPITLVNARHLYNAKGSLQNVESLVVSTVNGGSGSCICDAWINYLRPPQTSKNESRPDQKINVLYPITETVNKGTGGNLGVISAYVPMELVPENVIGDVNADTKLPLTQLKGFPFEKYGSEYNNRGISLVREWINGNNAVKLSNSQSVGIQITNQTKQKYEIRCRYASKGDNNVYFNVDLSENPFRNSISFGSTESSVVGVQGENGKYILKSITTVEIPAGSFYVHITNQGSSDLFLDRIEFVPKIQFQFCDNNNLHCDCNNPVDTDCTFCCVCTSLTDCDCNNPRGLDCTLCCQVENQLPSFVTLTDLQNITTQVNALVASSEHDTLATDVSDYEIEEVVLKVDALSGEVFGKEKKALRKLVNHTKRLSKARNLLIGGNFDNLDAWYRGRNVVNVSDHELFKSDHVLLPPPTLYSSYMFQKVEESKLKANTRYTVSGFIAHAEDLEIVVSRYGQEVKKVVQVPYGEAFPLTSRGAICCPPRSTSNGKPADPHFFSYSIDVGTLDVEANPGIELGLRIVERTGMARVSNLEIREDRPLKKNELRNVQRAARNWRTAYDQERAEVTALIQPVLNQINALYENEDWNGAIRSGVSYHDLEAIVLPTLPKLNHWFMSDMLGEQGSILAQFQEALDRAYTQLEESTILHNGHFTTDAANWTIEGDAHHAILEDGRRVLRLPDWSSSVSQTIEIENFDPDKEYQLVFHAQGEGTVSLQHGEEGEYVETHPHKSANFTTSHRQGVTFETNKVTVEITSEDGEFLVDHIALVEAPLPTDDQSSDGNTTSNTNSNTSMNNNQ
modifications: source = /note="Bacillus thuringiensis pesticidal crystal (Cry)"
For B1, in assay [4], the “efficacy against H. polygyrus” value is on record as “effective”. The “Fecal Egg Count Pre-Treatment” value in the assay with Ancylostoma caninum (Average of dogs (n = 2)) is 12581 EPG of Feces; in the assay with Ancylostoma caninum (Dog 1, day 41 post-infection), 15750 EPG of Feces; with Ancylostoma caninum (Dog 2, day 41 post-infection), 9412 EPG of Feces. Moreover, the “Hookworm Burden Pre-Treatment” value in the assay on Ancylostoma caninum (Average of dogs (n = 2)) is 70; in the assay on Ancylostoma caninum (Dog 1, capsule endoscopy, day 41 post-infection), 84; in the assay with Ancylostoma caninum (Dog 2, capsule endoscopy, day 41 post-infection) it was 56. For the same molecule, the “Fecal Egg Count Post-Treatment” value is on record as 1081.5 EPG of Feces in the assay on Ancylostoma caninum (setting [6]); 1590 EPG of Feces with Ancylostoma caninum (Dog 1, day 49 post-infection, ~40 mg/kg by gavage on days 42 and 44); 573 EPG of Feces in the assay with Ancylostoma caninum (Dog 2, day 49 post-infection, ~40 mg/kg by gavage on days 42 and 44). The “Hookworm Burden Post-Treatment” value in the assay on Ancylostoma caninum (setting [6]) is listed as 3.5; with Ancylostoma caninum (Dog 1, capsule endoscopy, day 49, ~40 mg/kg on days 42 and 44) it was 4; with Ancylostoma caninum (Dog 2, capsule endoscopy, day 49, ~40 mg/kg on days 42 and 44), 3. Moreover, in the assay with Ancylostoma caninum (setting [7]), the “% Reduction of Fecal Egg Count” value turned out to be 91.4%. In addition, the “% Reduction of Hookworm Burden” value in the assay with Ancylostoma caninum (setting [7]) is recorded as 95%. For the same molecule, the “efficacy against A. caninum in dogs” value in the assay with Ancylostoma caninum (~40 mg/kg by gavage on days 42 and 44 post-infection) is listed as “highly effective”. Moreover, the hookworm burden reduction in assay [3] (hamsters, purified protein at 10 mg/kg, previously published data (ref 14)) is on record as 65%. Also, the “% Parasite reduction” value in assay [5] (A. ceylanicum infections in hamsters, 10 mg/kg, This Example) amounted to 93%. The “efficacy after pre-exposure to two doses of Cry5B prior to infection” value in assay [5] (hamsters) was “not altered”. For the same molecule, the “effect of pre-neutralization of stomach acid on efficacy” value in assay [5] (hamsters pre-gavaged with cimetidine (and NaHCO3) before treatment) was “improved”.
